Assay results from patent publication US20080039410A1, “Inositol 1,4,5-Trisphosphate Receptor Mutants and Uses Thereof” (priority 2004, published 2008).
Entries after “also recorded” stand apart in the source; their conditions may differ.

How the values were obtained:
Format in all cases: cell-based, rat
S2+ InsP3R-1 = assay: Potentiation of CCh-induced Ca2+ release after PKA activation (forskolin), S2+ InsP3R-1 constructs in DT-40 3ko cells; conditions: for effect of forskolin treatment on CCh-induced [Ca^2+]i peak: 20 μM forskolin, threshold CCh; for Ca^2+ release after PKA activation: S2 + InsP3R-1 constructs, Table 2
Method: DT-40 cells lacking all three InsP3 receptor subtypes DT-40 3ko were transfected using electroporation, 350 V and 950 μF. 2×10^7 cells were co-transfected with 25 μg of the InsP3R cDNA, 25 μg of the muscarinic type 3 (M3) receptor, and 4 μg of the red fluorescent protein plasmid pHcRed1-N1. Cells were incubated with DNA in 500 μL of Optimem media on ice for 10 minutes. The cell/DNA mixture was electroporated, incubated on ice for 30 minutes, brought up to 5 ml with Optimem and placed in a 5% C02 incubator at 39° C. for 5 hours. The cells were then centrifuged and resuspended in 12 ml of complete RPMI media. Transfection efficiency was typically ˜20%. Experiments were performed within 32 hours of transfection.
(§1) Transfected DT-40 3ko cells were washed once in a HEPES-buffered physiological saline solution (HEPES-PSS) containing (in mM) 5.5 glucose, 137 NaCl, 0.56 MgCl2, 4.7 KCl, 1 Na2HPO4, 10 HEPES (pH 7.4), 1.2 CaCl2 and 1% w/v Bovine Serum Albumin. Cells were then resuspended in BSA HEPES-PSS with 1 μM Fura-2 (AM), placed on a 15 mm glass coverslip in a low volume perfusion chamber (Warner Instruments) and allowed to adhere for 30 minutes at room temperature. Cells were perfused continually for 10 minutes with HEPES-PSS before experimentation to allow Fura-2 de-esterification. A field of cells for each experiment was chosen that contained a wide range of transfection efficiency based upon the intensity of red fluorescence emitted when excited at 560 nm. [Ca^2+]i imaging was performed essentially as previously described using an inverted epifluorescence Nikon microscope with a 40× oil immersion objective lens (numerical aperture, 1.3). Cells were excited alternately with light at 340 and 380 nm (±10 mn bandpass filters, Chroma) using a monochrometer (TILL Photonics). Fluorescence images were captured and digitized with a digital camera driven by TILL Photonics software. Images were captured every 2 seconds with an exposure of 35 ms and no binning. 340/380 ratio images were calculated online and stored immediately to hard disk.
The effects of treatment were determined by normalizing the peak change in fluorescence ratio by stimulation following forskolin or 8-Br cGMP exposure to that of stimulation in control HEPES-PSS. Thus, pooled data represents a normalized fold increase over control for the treated trial. Two tailed heteroscedastic t-tests with P values<0.05 were considered to have statistical significance.
Experiments were performed in DT-40 3ko cells transfected with S2^+ InsP3R-1. Since there are no reports of Gαq coupled receptors expressed in DT-40 cells, initial experiments were performed eliciting [Ca^2+]i changes by stimulating the endogenous B cell receptor with α-IgM antibody. […] Thus, in all further experiments, DT-40 3ko cells were co-transfected with the M3 receptor, and HcRed to facilitate identification of transfected cells (inset FIG. 1). Stimulation of M3 receptors with the muscarinic agonist carbachol (CCh), provided a convenient means of stimulating [Ca^2+]i changes, presumably through Gαq-induced activation of phospholipase C and production of InsP3. […] The potentiation was most marked when threshold elevations in [Ca^2+]i were evoked by the initial exposure to CCh and therefore only cells in which the initial CCh treatment evoked a Δ 340/380 ratio of<0.2 ratio units were included for analysis. […] [Ca^2+]i changes were never evoked by CCh treatment in cells transfected with only M3 cDNA in the absence of InsP3R or likewise InsP3R with no M3 cDNA.
The effects of treatment were determined by normalizing the peak change in fluorescence ratio by stimulation following forskolin or 8-Br-cGMP exposure to that of stimulation in control HEPES-PSS. Thus, pooled data represent a normalized fold increase over control for the treated trial. In all cases where statistical significance is indicated, two-tailed heteroscedastic t tests were performed. […]

S2− InsP3R-1 [1] = assay: Potentiation of CCh-induced Ca2+ release after PKG activation (8-Br cGMP), S2− InsP3R-1 constructs in DT-40 3ko cells
Method: as §1, with “Cells were excited alternately with light at 340 and 380 nm (±10 mn bandpass filters, Chroma) using a monochrometer (TILL Photonics).” left out, “Images were captured every 2 seconds with an exposure of 35 ms and no binning.” left out
The effects of treatment were determined by normalizing the peak change in fluorescence ratio by stimulation following forskolin or 8-Br cGMP exposure to that of stimulation in control HEPES-PSS. […]

S2− InsP3R-1 [2] = assay: Flash photolysis of caged InsP3 (ci-IP3/PM), Fluo-4, Dt-40 3ko cells expressing S2− InsP3R-1 constructs
Method: Transfected cells were simultaneously loaded with the visible wavelength indicator Fluo-4 and a cell-permeable form of caged inositol trisphosphate (ci-IP3/PM) for 30 min. ci-IP3/PM is a homologue of cm-IP3/PM. The 2- and 3-hydroxyls of the inositol ring are protected by an isopropylidene group in ci-IP3/PM and are protected by a methoxymethylene group in cm-IP3/PM (45). Like cm-IP3/PM, ci- IP3/PM diffuses across cell membranes, and the PM group is hydrolyzed by cellular esterases, and Ca^2+ release can be induced upon photouncaging as i-IP3 is liberated from the cage and acts in a similar fashion to InSP3 at InsP3R^2. A further period of 30 min was allowed for de-esterification of both dye and cage. Cells were illuminated at 488±10 nm and fluorescence collected through a 525±25-nm bandpass filter and captured using the Till Photonics imaging suite. […] Photolytic release was performed as described previously by using a pulsed xenon arc lamp (Till Photonics). A high intensity (0.5-5 ms duration; 80 J) discharge of UV light (360±7.5 nm) was reflected onto the plane of focus by using a DM400 dichroic mirror and Nikon 40× oil immersion objective, 1.3 NA.
To investigate the consequences of InsP3R-1 phosphorylation, the Ca^2+ release properties of phosphomimetic mutations in the functionally important sites in both S2+ and S2− InsP3R-1 was analyzed in Dt-40 3ko cells. This cell line provides the only known InsP3R null background (42, 43). In initial experiments, a comparison was made between the sensitivity of Ca^2+ release by InsP3R-1 phosphomimetic mutations versus nonphosphorylatable alanine mutations at the sites. Dt-40 3ko cells were transfected with DNA encoding HcRed to facilitate identification of transfected cells and either S2− S1589E/S1755E InsP3R-1 (S2−EE) or S2− S1589A/S1755A (S2−AA). Ca^2+ release was monitored following flash photolysis of ci-IP3, a cell-permeable form of caged InSP3. This experimental paradigm provides a relatively direct assessment of the effects of InsP3R-1 phosphorylation on the Ca^2+ release process. […]
Target sequence in this assay (P29994 1-604 limits assumed): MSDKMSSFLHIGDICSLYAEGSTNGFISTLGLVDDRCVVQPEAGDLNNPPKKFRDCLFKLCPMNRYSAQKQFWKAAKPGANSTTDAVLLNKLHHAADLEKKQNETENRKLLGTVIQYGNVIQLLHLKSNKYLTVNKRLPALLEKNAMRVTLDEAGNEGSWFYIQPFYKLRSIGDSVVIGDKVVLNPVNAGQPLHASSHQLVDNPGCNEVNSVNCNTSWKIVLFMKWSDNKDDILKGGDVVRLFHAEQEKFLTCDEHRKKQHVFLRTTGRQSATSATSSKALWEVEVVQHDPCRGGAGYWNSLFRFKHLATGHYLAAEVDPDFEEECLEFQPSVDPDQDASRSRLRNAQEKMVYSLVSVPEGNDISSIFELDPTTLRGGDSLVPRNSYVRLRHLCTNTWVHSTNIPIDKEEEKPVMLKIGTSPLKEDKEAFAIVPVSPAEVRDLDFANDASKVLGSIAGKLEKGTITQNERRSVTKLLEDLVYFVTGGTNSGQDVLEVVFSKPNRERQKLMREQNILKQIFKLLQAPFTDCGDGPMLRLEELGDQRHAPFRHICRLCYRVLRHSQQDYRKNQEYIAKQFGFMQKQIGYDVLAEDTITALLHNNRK

S2+ES: S2+ InsP3R-1, long splice variant with S1589E
effect of forskolin treatment on CCh-induced [Ca^2+]i peak (S2+ InsP3R-1): marked potentiation; also recorded: markedly potentiated
Ca^2+ release after PKA activation (S2+ InsP3R-1): Enhanced

S2−WT: wild-type rat type-1 InsP3 receptor, peripheral short S2− splice variant (SEQ ID NO: 17)
effect of 8-Br cGMP treatment on CCh-induced Ca^2+ release (S2− InsP3R-1 [1]; 10 μM 8-Br cGMP): no effect
Ca^2+ release after PKG activation (S2− InsP3R-1 [1]; S2 − InsP3R-1 constructs, Table 2): no change

S2+SE: phosphomimetic S2+ InsP3R-1, long splice variant of S1755E
effect of forskolin treatment on CCh-induced [Ca^2+]i peak (S2+ InsP3R-1): no further potentiation
Ca^2+ release after PKA activation (S2+ InsP3R-1): No change

S2−EE: phosphomimetic S1589E/S1755E mutant of the short splice variant
cells showing Ca^2+ release (>0.05% ΔF/F) (S2− InsP3R-1 [2]; 0.5 ms UV discharge): ~60%
cells showing Ca^2+ release (S2− InsP3R-1 [2]; 1.25 ms UV flash): all cells
response to photolysis of ci-IP3 versus nonphosphorylatable mutant (S2− InsP3R-1 [2]; UV flash 0.5-5 ms): lower threshold of UV light exposure
